Test results: patent US20260272936A1, “TREATMENT OF CANCER WITH A PARG INHIBITOR” (858 Therapeutics, Inc., priority 2023, published 2026)

How the values were obtained:
[1] = target: T1, DRYK1B (Homo sapiens, UniProt Q9Y463); test: Eurofins protein kinase panel at 10 μM; type: biochemical
T1 construct: Eurofins (contract study)
Method: (§1) The inhibitory potential of Compound 1 was tested against 38 diverse non-kinase enzymes and 55 receptors, ion channels and neurotransmitter transporters in radioligand competition binding assays using mostly human recombinant proteins. […] Compound 1 was also tested against an additional panel of 468 protein kinases. Studies were performed at Eurofins (Luxembourg City, Luxembourg) using their published assay formats.

[2] = tested on: panel of 468 protein kinases (all other kinases tested); test: Eurofins protein kinase panel at 10 μM; type: biochemical
Method: as §1

[3] = tested on: HBCx-34 breast cancer patient-derived xenograft; test: HBCx-34 breast cancer PDX model; type: in vivo, Hsd: Athymic Nude-Foxn1nu mice; conditions: 75 or 100 mg/kg BID, at day 15, transient
Method: The PDX models were established by subcutaneous inoculation of HBCx-22 or HBCx-34 cells into Hsd: Athymic Nude-Foxn1nu mice. Breast tumor-bearing mice received estrogen diluted in drinking water (β-oestradiol, 8.5 mg/L) from the date of tumor inoculation until the end of the study to promote optimal growth of the ER^+ cell line. Groups of 10 animals each were established by random assignment. Tumor volumes and body weights were measured twice weekly. […] Statistical analysis of end-of-study tumor volumes was performed using the Kruskal-Wallis test with Dunn's multiple comparisons test (HBCx-34) or Brown-Forsythe test with Dunnett's T3 multiple comparisons test (HBCx-22).
Compound 1 was administered to mice orally twice daily (BID) for 42 days at a dose of 75 or 100 mg/kg based on body weight. […] Compound 1 was administered to mice orally BID for 35 days at doses of 75 or 100 mg/kg based on body weight.

[4] = tested on: OCM.109 cells; test: 6-day proliferation of patient-derived ovarian cancer model, nuclei count; type: cell-based, human
Method: (§2) Ex vivo ovarian cancer models (OCMs) were established from the ascites of high-grade serous ovarian cancer patients (Coulson-Gilmer, 2021, J Exp Clin Cancer Res) and grown in vitro as 2D cell lines. OCMs were cultured in an incubator at 37° C. in 5% CO2 in OCMI media.
(§3) Compound 1 IC50 values for inhibition of cell proliferation were determined by imaging and counting the number of nuclei after compound treatment. Cells were harvested with trypsin (Thermo Fisher Scientific, Waltham, MA, USA, Cat #25200-056) and plated in Sarstedt 96-well Cell+ Tissue Culture Plates (Thermo Fisher Scientific, Waltham, MA, USA, Cat #NC9624222) at 5,000 cells/well (OCM.109) or 10,000 cells/well (OCM.246) in 100 μL of OCMI medium and incubated overnight at 37° C., 5% CO2. The following day, 1000× Compound 1 and niraparib concentration curves were prepared by serial dilution in 100% DMSO. The 1000× concentration was diluted 1:200 into growth media to generate a 5× concentration curve in 0.5% DMSO/growth medium before addition of 25 μL of the 5× compound to the wells. Control wells received 25 μL of 0.5% DMSO in media or 10 μM of Compound 1. The plates were mixed and incubated for 6 days at 37° C., 5% CO2 before fixing and staining the cells for nuclei counting as described in Example 3.
(§4) Four fields in each well were acquired using the DAPI channel at 10× magnification. Using high-content software (Cell Reporter Xpress), the nuclei were detected and counted. The percent proliferation after treatment was determined by normalizing the number of nuclei in the treated wells to the DMSO and 10 μM Compound 1 control wells. Concentration response curves and IC50 values for percent inhibition of proliferation were generated by non-linear regression analysis using a least squares fit of the log (inhibitor) vs. response-Variable slope (four parameters) curve using GraphPad Prism 10 software (GraphPad Software, Boston, MA, USA).

[5] = tested on: OCM.246 cells; test: as above; type: cell-based, human
Method: as §2, §3, §4

[6] = Homo sapiens, 144 h, read-out: IC50 inhibition of proliferation

T1 sequence (Q9Y463 whole entry): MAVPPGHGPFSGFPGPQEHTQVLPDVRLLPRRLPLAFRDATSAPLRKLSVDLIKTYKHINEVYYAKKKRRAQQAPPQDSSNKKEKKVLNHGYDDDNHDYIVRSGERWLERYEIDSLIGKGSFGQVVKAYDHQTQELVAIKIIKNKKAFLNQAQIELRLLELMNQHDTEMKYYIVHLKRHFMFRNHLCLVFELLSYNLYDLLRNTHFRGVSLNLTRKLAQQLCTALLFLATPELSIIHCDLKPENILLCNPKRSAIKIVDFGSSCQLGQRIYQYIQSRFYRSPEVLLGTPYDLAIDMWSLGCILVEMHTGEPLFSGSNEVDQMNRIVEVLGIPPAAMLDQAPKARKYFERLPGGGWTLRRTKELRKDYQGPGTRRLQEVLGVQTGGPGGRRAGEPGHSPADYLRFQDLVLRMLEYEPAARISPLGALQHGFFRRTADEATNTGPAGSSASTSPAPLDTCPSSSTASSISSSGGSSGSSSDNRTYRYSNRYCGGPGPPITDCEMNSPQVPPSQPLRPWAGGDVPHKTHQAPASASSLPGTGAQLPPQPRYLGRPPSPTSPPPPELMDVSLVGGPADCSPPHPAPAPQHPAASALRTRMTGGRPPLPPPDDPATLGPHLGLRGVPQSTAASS

## [2H]C([2H])(c1cnn(C)c1)N1C(=O)c2cc(S(=O)(=O)NC3(C)CC3)ccc2N2C1=NC[C@H]2C [Compound 1, (R)-1-methyl-4-((1-methyl-1H-pyrazol-4-yl)methyl-d2)-N-(1-methylcyclopropyl)-5-oxo-1,2,4,5-tetrahydroimidazo[1,2-a]quinazoline-7-sulfonamide]
[1]
  inhibition at 10 µM: 51%
[2]
  % inhibition: < 50%
[3]
  maximum decrease in body weight: approximately 11%
[4]; [6]
  IC50: 51 nM
[4]; OCM.109
  potency better than niraparib: > 80 fold
[5]; [6]
  IC50: 162 nM
[5]; OCM.246
  potency better than niraparib: > 20 fold
